The source of these data is PMC7479175, “Selection of Potent Inhibitors of Soluble Epoxide Hydrolase for Usage in Veterinary Medicine” (Frontiers in Veterinary Science, 2020).

A word on the IC50: it is the concentration that gives 50% inhibition. For orientation: inhibition means the drop in the measured response relative to a control, in per cent.

Data set [1] deals with T1, sEH activity from liver cytosol of Mouse (Mus musculus, UniProt P34914).
T1 construct: The radioactive fluorescent assay was used with the liver crude extracts; from tissue; host or cells: mouse liver cytosol (100,000 g supernatant)
T1 sequence (P34914 1-554): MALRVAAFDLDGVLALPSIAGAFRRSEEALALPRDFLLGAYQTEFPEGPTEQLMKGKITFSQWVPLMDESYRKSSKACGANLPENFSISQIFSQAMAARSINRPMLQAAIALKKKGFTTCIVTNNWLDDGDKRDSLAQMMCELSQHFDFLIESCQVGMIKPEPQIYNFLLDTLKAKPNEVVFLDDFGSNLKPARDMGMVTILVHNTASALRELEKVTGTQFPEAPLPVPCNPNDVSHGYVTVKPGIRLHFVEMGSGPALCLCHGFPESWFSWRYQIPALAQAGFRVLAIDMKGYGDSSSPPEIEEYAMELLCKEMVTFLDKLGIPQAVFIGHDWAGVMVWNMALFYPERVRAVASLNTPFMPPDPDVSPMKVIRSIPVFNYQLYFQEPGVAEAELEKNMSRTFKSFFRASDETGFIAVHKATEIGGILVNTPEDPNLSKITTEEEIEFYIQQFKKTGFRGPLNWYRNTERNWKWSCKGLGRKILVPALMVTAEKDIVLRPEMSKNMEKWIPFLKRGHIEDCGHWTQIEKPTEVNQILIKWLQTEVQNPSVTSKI
The data set is described as follows: sEH inhibition potency (IC50), radioactive assay with [3H]t-DPPO, liver cytosol. The data set is classed as biochemical. To be noted: [3H]t-DPPO ([S]final = 5 μM) as substrate.

Data set [2] has as its target sEH activity from liver cytosol of Cow (Bos taurus, UniProt Q17QK4). Described as above. The format is biochemical. Conditions: [3H]t-DPPO ([S]final = 5 μM) as substrate.
For data set [3], the target named is T2, Dog sEH (Canis lupus familiaris, UniProt A0A8I3NJL8).
T2 sequence (A0A8I3NJL8 1-556): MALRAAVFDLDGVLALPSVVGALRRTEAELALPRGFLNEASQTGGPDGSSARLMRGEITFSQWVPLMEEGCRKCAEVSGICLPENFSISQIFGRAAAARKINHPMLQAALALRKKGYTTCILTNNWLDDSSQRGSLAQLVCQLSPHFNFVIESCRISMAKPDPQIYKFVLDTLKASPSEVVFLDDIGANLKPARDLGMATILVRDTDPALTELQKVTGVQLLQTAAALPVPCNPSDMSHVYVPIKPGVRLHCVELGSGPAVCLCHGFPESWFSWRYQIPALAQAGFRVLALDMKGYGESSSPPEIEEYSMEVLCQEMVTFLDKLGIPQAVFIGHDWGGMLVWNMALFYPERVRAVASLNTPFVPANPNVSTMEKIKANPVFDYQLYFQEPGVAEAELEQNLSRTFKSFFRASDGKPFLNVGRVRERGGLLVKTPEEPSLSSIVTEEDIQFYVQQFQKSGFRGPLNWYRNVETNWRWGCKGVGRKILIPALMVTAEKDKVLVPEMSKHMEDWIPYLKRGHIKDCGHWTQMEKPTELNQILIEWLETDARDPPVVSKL
Nature of the data set: sEH inhibition potency (IC50), fluorescent assay with CMNPC, partially purified enzyme. The data set is classed as biochemical. To be noted: CMNPC ([S]final = 5 μM) as substrate; average ± standard deviation (n = 3). As for the experimental part:
The sEH activity from the cat, dog and horse liver was further purified to eliminate contaminating esterase activity that could interfere with the screening fluorescent assay ([16]). The cytosolic fraction was loaded on a Q-Sepharose column (100 mL) equilibrated with sodium phosphate buffer (20 mM pH 7.4). After washing of the bound proteins, the sEH activity was eluted with a step gradient of NaCl (0–1 M). The fractions containing the sEH activity were pooled and concentrated using a Centriprep-30. The concentrates were aliquoted and flash frozen, then kept frozen at −80°C until usage. […] Protein concentration was quantified using the Pierce BCA assay (Pierce, Rockford, IL), using Fraction V bovine serum albumin (BSA) as the calibrating standard.
The IC50 values reported herein were determined using either a fluorescent based assay (CMNPC as substrate) for purified enzyme preparations or a radioactive based assay ([^3H]t-DPPO as substrate) for crude enzyme preparations ([20]). The fluorescent assay was used with the purified proteins. […] The substrate (CMNPC) was then added ([S]final = 5 μM). […] The radioactive […] assay was used with the liver crude extracts. […]

The target in data set [4] is T2, Dog sEH. Nature of the data set: Primary screen (end point) of the sEH inhibitor library, PHOME substrate. Conditions: [I] = 100 nM, primary end-point screening; read-out: Dog sEH Inhibition (%) P. The data set is classed as biochemical. As for the experimental part:
(§1) Primary screening of the library was performed with an inhibitor concentration of 100 nM using PHOME as substrate ([22]). […] The plates were then mixed and incubated at 30°C for 5 min. Across each plate, 30 μL of the working substrate solution (270 μL of 5 mM PHOME solution in DMSO diluted with 3,680 μL of buffer) were added quickly to yield [S]final: 50 μM. Each plate was further incubated at room temperature (horse sEH: 60 min; cat sEH: 45 min; dog sEH: 30 min).

A further data set deals with Horse sEH (Equus caballus, UniProt F7C407). Described as above. The format is biochemical. Conditions: [I] = 100 nM, primary end-point screening; read-out: Horse sEH Inhibition (%) P. As for the experimental part: as §1
Sequence of Horse sEH (F7C407 entry or part of it): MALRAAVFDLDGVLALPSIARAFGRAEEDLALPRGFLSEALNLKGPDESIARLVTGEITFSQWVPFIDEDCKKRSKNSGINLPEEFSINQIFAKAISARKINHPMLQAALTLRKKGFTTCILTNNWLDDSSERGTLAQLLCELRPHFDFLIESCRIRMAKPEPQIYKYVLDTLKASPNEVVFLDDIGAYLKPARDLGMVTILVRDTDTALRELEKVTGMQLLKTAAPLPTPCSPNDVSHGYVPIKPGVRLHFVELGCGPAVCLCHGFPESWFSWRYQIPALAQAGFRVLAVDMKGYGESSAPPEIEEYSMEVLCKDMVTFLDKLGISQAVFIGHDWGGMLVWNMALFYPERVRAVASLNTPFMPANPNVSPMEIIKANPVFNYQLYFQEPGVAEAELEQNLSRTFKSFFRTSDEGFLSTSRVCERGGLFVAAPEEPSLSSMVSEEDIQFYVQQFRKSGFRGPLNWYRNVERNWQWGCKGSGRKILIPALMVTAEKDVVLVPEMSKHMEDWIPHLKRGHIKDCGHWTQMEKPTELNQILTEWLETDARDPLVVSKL
Data set [5] concerns horses with chronic laminitis. To be noted: 0.1–1 mg/kg i.v., ref [11]–[13]; cited from earlier work.
The next data set deals with dogs with osteoarthritis. Further details: method as in PMID 31214021. Conditions: ref [14]; cited from earlier work.

Sequence of sEH activity from liver cytosol of Cow (Q17QK4 entry or part of it): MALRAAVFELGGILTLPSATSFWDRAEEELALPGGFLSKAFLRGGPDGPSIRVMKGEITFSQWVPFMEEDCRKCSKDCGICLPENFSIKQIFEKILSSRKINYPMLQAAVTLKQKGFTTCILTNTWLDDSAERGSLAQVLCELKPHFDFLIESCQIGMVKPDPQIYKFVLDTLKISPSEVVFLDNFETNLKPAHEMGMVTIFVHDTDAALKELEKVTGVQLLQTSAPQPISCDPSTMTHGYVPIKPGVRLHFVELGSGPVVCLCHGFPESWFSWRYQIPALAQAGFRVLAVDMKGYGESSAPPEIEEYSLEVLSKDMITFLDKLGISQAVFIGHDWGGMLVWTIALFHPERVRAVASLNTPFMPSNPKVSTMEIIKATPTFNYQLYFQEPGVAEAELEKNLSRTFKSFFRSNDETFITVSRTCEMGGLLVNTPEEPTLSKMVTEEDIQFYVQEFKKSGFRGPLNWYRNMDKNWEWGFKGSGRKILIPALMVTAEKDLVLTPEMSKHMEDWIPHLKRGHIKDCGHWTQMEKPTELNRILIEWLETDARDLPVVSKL

Consider `O=C(NCCCCOc1ccc(F)cc1)NC12CC3CC(CC(C3)C1)C2` [1,707], for which the IC50 in data set [1] came to 10 nM; in data set [2], 7 nM; at Dog sEH [3] it was 0.9 ± 0.1 nM. In addition, the results for the inhibition at 0.1 µM at Dog sEH [4] and at Horse sEH were under 90% and 101%, respectively.
For the molecule `O=C(Nc1ccc(OC(F)(F)F)cc1)N[C@H]1CC[C@H](Oc2ccc(C(=O)O)cc2)CC1` [1,728, trans-4-{4-[3-(4-trifluoromethoxy-phenyl)-ureido]-cyclohexyloxy}-benzoic acid], in data set [5], the adverse effects entry is given as “without observed adverse effects”; the reduction in pain entry is “significant and rapid reduction in pain”. Further, the pain perception entry with dogs with osteoarthritis is reported as “able to reduce pain perception”.
As to `N#CNC(=O)CCCCCCCCCCCNC(=O)NC12CC3CC(CC(C3)C1)C2` [1,845], the IC50 in data set [1] was found to be 17 nM; in data set [2], 11 nM; on Dog sEH [3] it was 0.6 ± 0.04 nM. Besides, the results for the inhibition at 0.1 µM on Dog sEH [4] and at Horse sEH were 95% and 100%, respectively.
